Source: patent US6956036B1, “6-hydroxy-indazole derivatives for treating glaucoma” (Alcon, Inc., priority 2000, dated 2005)
pEC50: −log10 of the molar value.

What was measured:
5-HT2 receptor = target: T1, 5-HT2 receptor (Rattus norvegicus, UniProt P14842); test: 5-HT2 Functional Assay: Phosphoinositide (PI) Turnover Assay; assay type: cell-based; details: for pEC50: [3H]inositol phosphates production in A7r5 rat vascular smooth muscle cells
T1 construct: A7r5 rat vascular smooth muscle cells; endogenous in cells; host or cells: A7r5 rat vascular smooth muscle cells
Method: 5-HT2 Functional Assay: Phosphoinositide (PI) Turnover Assay
The relative agonist activity of serotonergic compounds at the 5-HT2 receptor can be determined in vitro using the ability of the compounds to stimulate the production of [^3H]inositol phosphates in [^3H]myo-inositol-labeled A7r5 rat vascular smooth muscle cells by their ability to activate the enzyme phospholipase C. These cells are grown in culture plates, maintained in a humidified atmosphere of 5% CO2 and 95% air and fed semi-weekly with Dulbecco's modified Eagle medium (DMEM) containing 4.5 g/l glucose and supplemented with 2 mM glutamine, 10 μg/ml gentamicin, and 10% fetal bovine serum. For the purpose of conducting the phosphoinositide (PI) turnover experiments, the A7r5 cells are cultured in 24-well plates as previously [J. Pharmacol. Expt. Ther., 286, 411 (1998)]. Confluent cells are exposed for 24–30 hrs to 1.5 μCi [^3H]-myo-inositol (18.3 Ci/mmol) in 0.5 ml of serum-free medium. Cells are then rinsed once with DMEM/F-12 containing 10 mM LiCl prior to incubation with the test agent (or solvent as the control) in 1.0 ml of the same medium for 1 hr at 37° C., after which the medium is aspirated and 1 ml of cold 0.1 M formic acid added to stop the reaction. The chromatographic separation of [3H]-inositol phosphates ([^3H]-IPs) on an AG-1-X8 column is performed as previously described [J. Pharmacol. Expt. Ther. 286, 411 (1998)] with sequential washes with H2O and 50 mM ammonium formate, followed by elution of the total [^3H]-IPs fraction with 1.2 M ammonium formate containing 0.1 M formic acid. The eluate (4 ml) is collected, mixed with 15 ml scintillation fluid, and the total [^3H]-IPs determined by scintillation counting on a beta-counter. Concentration-response data are analyzed by the sigmoidal fit function of the Origin Scientific Graphics software (Microcal Software, Northampton, Mass.) to determine agonist potency (EC50 value) and efficacy (Emax). Serotonin (5-HT) is used as a positive control (standard) agonist compound and the efficacy of test compounds is compared to that of 5-HT (set at 100%). The concentration of the compound needed to stimulate the production of [^3H]-IPs by 50% of the maximum response is termed the EC50 value.

[1] = A7r5 cells, efficacy compared to that of 5-HT (set at 100%)

T1 sequence (P14842 whole entry): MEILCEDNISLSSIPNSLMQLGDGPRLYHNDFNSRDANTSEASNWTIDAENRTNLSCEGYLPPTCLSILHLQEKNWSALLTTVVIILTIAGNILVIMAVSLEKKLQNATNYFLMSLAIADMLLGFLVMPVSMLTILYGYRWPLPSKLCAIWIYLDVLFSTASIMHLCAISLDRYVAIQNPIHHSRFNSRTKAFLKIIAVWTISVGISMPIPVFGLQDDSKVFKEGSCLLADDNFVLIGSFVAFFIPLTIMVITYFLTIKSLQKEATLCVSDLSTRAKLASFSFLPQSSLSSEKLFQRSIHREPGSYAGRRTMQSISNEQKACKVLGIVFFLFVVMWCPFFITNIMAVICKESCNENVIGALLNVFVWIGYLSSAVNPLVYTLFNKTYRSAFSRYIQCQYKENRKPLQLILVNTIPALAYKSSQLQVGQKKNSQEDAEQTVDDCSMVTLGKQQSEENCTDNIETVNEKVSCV

| SMILES | melting point [°C] | Emax (5-HT2 receptor; [1]) [%] | pEC50 (5-HT2 receptor) | Efficacy (Emax, %) (5-HT2 receptor; [1]) [%] |
| --- | --- | --- | --- | --- |
| COc1ccc2c(C)nn(CC(C)N)c2c1.O=C(O)/C=C/C(=O)O (centres unmarked) [Example 1, 2-(6-Methoxy-3-methyl-indazol-1-yl)-1-methylethylamine Fumarate] | 150 to 152 | 71 | 6.24 | – |
| CC(N)Cn1nc(Cl)c2ccc(O)cc21 (centres unmarked) [Example 6, 1-(2-Aminopropyl)-3-chloro-1H-indazol-6-ol] | – | 84 | 5.98 | – |
| CC(N)Cn1ncc2ccc(OC(=O)C(C)(C)C)cc21.O=C(O)/C=C/C(=O)O (centres unmarked) | 180 to 182 | – | – | – |
| COc1ccc2c(Cl)nn(CC(C)N)c2c1 (centres unmarked) [Example 5, 2-(3-Chloro-6-methoxy-indazol-1-yl)-1-methyl-ethylamine] | – | 64 | 6.27 | – |
| CC(N)Cc1c[nH]c2ccc(O)cc12 (stereo not drawn) [α-Methylserotonin, reference compound] | – | – | – | 104 |
| Cc1nn(CC(C)N)c2cc(O)ccc12.O=C(O)/C=C/C(=O)O (centres unmarked) [Example 2, 1-(2-Aminopropyl)-3-methyl-1H-indazol-6-ol Fumarate] | 166 to 168 | 87 | 6.32 | – |
| COc1ccc2cnn(CC(C)N)c2c1 (centres unmarked) [Example 4, 2-(6-Methoxy-indazol-1-yl)-1-methyl-ethylamine] | – | 73 | 6.61 | – |
